Values after ≈ are worked out from the molar mass of the structure shown. Peptide text beside a SMILES is read from it. * marks the point of attachment. FITC = O=C1OC2(c3ccc(O)cc3Oc3cc(O)ccc32)c2ccc(NC(=S)*)cc21; Ahx = NCCCCCC(=O)O
How the values were obtained:
[1] = system: C. albicans American Type Culture Collection (ATCC) 10,231; format: cell-based, Candida albicans; conditions: American Type Culture Collection (ATCC) 10,231, 24 h
Description: C. albicans (ATCC 10231) from the American Type Culture Collection (Manassas, VA, USA) was cultured at 28 °C on SD agar plates.
To determine the minimum inhibitory concentration (MIC) values of the FITC conjugated-P-113 peptides and their derivatives, a broth microdilution assay was used. Overnight-grown cultures of C. albicans in SD broth were sub-cultured for several hours and subsequently diluted to a final concentration of 5 × 10^4 CFU/mL in Mueller Hinton (MH) broth and LYM broth. A total of 100 μL of diluted microbe was transferred into each well of a 96-well plate, into which a 1 μL dilution series of peptides in sterile water (ranging from 50 to 0.78 μg/mL) was previously added. After incubation for 24 h at 28 ℃, the MIC value of P-113 peptides was determined as the lowest concentration at which no change in optical density was observed. The experiment was conducted three times, and average values were reported.

[2] = system: Candida albicans; format: cell-based; conditions: 24 h, 1
Description: Figure 7 Time killing activity of FITC-labeled P-113 peptide and its FITC-labeled derivatives against Candida albicans. Cells were treated with 1× MIC of (a) P-113 (black circle), FITC-labeled N-terminal truncated P-113 (black square), FITC-labeled C-terminal truncated P-113 (black triangle), and (b) treated with FITC-labeled Bip-P-113 (white square), and FITC-labeled Dip-P-113 (white triangle). Killed cells (%) = (cell number in peptide-free control − cell number in sample)/(cell number in peptide-free control) × 100. Error bars represent the standard errors of the mean.
C. albicans were cultivated onto Sabouraud dextrose agar plates overnight and sub-cultured twice before time killing assays. A total of 5 × 10^4 CFU/mL of C. albicans cells were treated with 1× MIC of FITC-conjugated P-113 peptides and their derivatives in SD broth for 10, 20, 30, 60, and 120 min at 28 °C. After that time, serial dilutions (1:10) of the incubation mixtures were added onto SD agar. The numbers of CFU were counted after 24 h of incubation at 28 °C. The percentage of killed cells was calculated by comparison with the number of cells in a control sample incubated without P-113 peptide. The assays were performed in triplicate.

[3] = system: living C. albicans cells (secreted aspartic proteinases, Saps); experiment: Degradation of P-113 by living C. albicans cells (NMR); format: in vitro ADME, Candida albicans
Description: For living cell NMR experiments, the interaction between ^15N-labeled P-113 peptides and C. albicans was monitored by 2D heteronuclear single quantum coherence (HSQC) spectroscopy. The peptides were dissolved in SD broth for a total volume of 500 μL at a 0.275 mM concentration. After centrifugation, 10^7 CFU/mL of cells were resuspended in 50 μL of SD broth and then titrated into the peptide solution. The ^15N-^1H HSQC spectra were recorded on a Bruker Avance 600-MHz NMR spectrometer in the States-TPPI mode for quadrature detection at 301 K. The ^1H and ^15N carriers were placed at 4.699 and 120 ppm, respectively. After titration, 2D HSQC spectra were collected every hour during 24 h of incubation at 301 K. All spectra were processed with NMRPipe and analyzed using the Sparky program (T.D. Goddard and D.G. Kneller, SPARKY3, University of California, San Francisco, CA, USA).
To obtain sequence assignment information, 3D spectra, including those from HNCA, HN(CO)CA, HNCACB, HN(CO)CACB, HN(CA)CO, and HNCO experiments, were recorded on a Bruker Avance 600-MHz NMR spectrometer at 301 K. The ^13C carriers were placed at 48 ppm for C^α, at 38 ppm for ^13C^α/β and at 174 ppm for C′. All spectra were processed with NMRPipe and analyzed using the Sparky program.
To observe the correlation of amide nitrogen (^15Ni) to the carbon (^13C′) spin in the proceeding residue (^13C′i−1), 2D CON experiments were performed on Bruker Avance 850-MHz NMR spectrometer equipped with a triple-resonance cryogenic probe. The spectra comparing ^15N-, ^13C-labeled P-113 in SD broth and in a C. albicans titration were recorded with the center frequencies at 120 ppm (^15N) and 174 ppm (^13C), respectively. All spectra were processed with NMRPipe and analyzed using the Sparky program.
The inhibition of P-113 degradation by C. albicans was determined using living cell NMR experiments as described above in the presence of 0.5 mM of the aspartic protease inhibitor pepstatin A.

[4] = system: C. albicans; experiment: Confocal laser microscopy, localization of FITC peptides; format: cell-based, Candida albicans; conditions: 50 μM FITC-conjugated peptide, 10^7 CFU/mL, SD broth, 28 °C, 5 min
Description: Firstly, 10^7 CFU/mL of C. albicans was incubated with 0.25 mM FITC P-113 and 0.25 mM FITC alone (as a negative control) in SD broth at 28 °C for 1, 2, 3, 4, 5, and 6 h. Another experiment was performed to observe the short-term localization of Bip-P-113 and Dip-P-113 peptides. Briefly, log-phase C. albicans cultures were resuspended to a cell density of 10^7 CFU/mL in SD broth and treated for 5 min at 28 °C with 50 μM FITC-conjugated P-113, Bip-P-113, and Dip-P-113. After centrifugation, the cells were washed three times with 20 mM phosphate buffer (pH 7.4) to remove nonbinding peptides and fixed with 4% (w/v) paraformaldehyde in 20 mM phosphate buffer (pH 7.4) at room temperature for 20 min. Following fixation, the cells were centrifuged at 3500× g for 5 min, resuspended in phosphate buffer, and loaded onto a glass slide with a 1.4% solid agarose bed. The images were taken with a confocal laser scanning microscope (LSM 510 META, Carl Zeiss, Jena, Germany) equipped with a 40× C-Apochromat water-immersion objective lens (Carl Zeiss, Jena, Germany).

[5] = system: C. albicans; experiment: Scanning electron microscopy, cell morphology; format: cell-based, Candida albicans; conditions: 0.25 mM P-113, 10^7 CFU/mL, SD broth, 28 °C, 1-6 h
Description: Time-course morphological studies of C. albicans were performed by scanning electron microscopy (SEM). Overnight cultures of C. albicans were sub-cultured and grown in SD broth. Then, 10^7 CFU/mL of C. albicans was treated with 0.25 mM P-113 in SD broth at 28 °C. Samples were collected following 1, 2, 3, 4, 5, and 6 h of incubation. Another experiment was performed to observe the morphological changes caused over in a short time caused by Bip-P-113 and Dip-P-113. Briefly, 10^7 CFU/mL of C. albicans in SD broth was treated for 5 min at 28 °C with 50 μM P-113, Bip-P-113, and Dip-P-113. After harvest, cells were resuspended in fixation solution (2.5% glutaraldehyde in 20 mM phosphate buffer pH 7.4) and then placed on Thermanox substrate-coated cover slips at 4 °C for 12 h. The cover slips were carefully washed three times with 20 mM phosphate buffer (pH 7.4), followed by incubation in post-fixation solution (1% OsO4 in 20 mM phosphate buffer pH 7.4) at room temperature for an hour. After being washed three times with 20 mM phosphate buffer (pH 7.4), the cover slips were air-dried for an hour by dehydration with a graded series of ethanol. Samples were gold-coated and observed under an S-4700 field-emission (FE)-SEM (Hitachi, Ltd., Tokyo, Japan) at an acceleration voltage of 5 kV.

[6] = 0.01% P-113 (0.07 μM) in a mouthrinse treatment, clinical trial; cited from earlier work

C[C@H](NC(=O)CCCCCNC(=S)Nc1ccc2c(c1)C(=O)OC21c2ccc(O)cc2Oc2cc(O)ccc21)C(=O)N[C@@H](CCCCN)C(=O)N[C@@H](CCCNC(=N)N)C(=O)N[C@@H](Cc1c[nH]cn1)C(=O)N[C@@H](Cc1c[nH]cn1)C(=O)NCC(=O)N[C@@H](Cc1ccc(O)cc1)C(=O)N[C@@H](CCCCN)C(=O)N[C@@H](CCCNC(=N)N)C(=O)N[C@@H](CCCCN)C(=O)N[C@@H](Cc1ccccc1)C(=O)N[C@@H](Cc1c[nH]cn1)C(N)=O [Peptide P-113] ({FITC-Ahx}-AKRHHGYKRKFH-NH2; N-terminus assumed)
MIC, LYM Control [1]: 3.13 µg/mL (≈ 1.51 µM)
MIC, MH Broth [1]: >50 µg/mL
Killed cells [2]: 87%
Cleavage sites ([3]; 0.25 mM 15N-,13C-labeled P-113, 10^7 CFU/mL C. albicans, SD broth, 301 K, 24 h, 15N-13C CON and 3D backbone assignment): Tyr7-Lys8, Lys8-Arg9, and Lys10-Phe11
Incubation time to near-complete degradation of P-113 ([3]; 0.25 mM 15N-labeled P-113 (no FITC), 10^7 CFU/mL C. albicans, SD broth with 10% D2O, 301 K, 1H-15N HSQC every hour): 5 h
Time at which the first cleavage (Lys10-Phe11) was observed ([3]; 0.25 mM 15N-labeled P-113, 10^7 CFU/mL C. albicans, SD broth, 301 K, new HSQC cross-peaks): 1 h
Changes in 1H-15N HSQC chemical shifts (degradation) in the presence of pepstatin A ([3]; 0.25 mM P-113, 10^7 CFU/mL C. albicans + 0.5 mM pepstatin A, 301 K, 24 h): no noticeable changes
Changes in chemical shifts (degradation) at cell densities below 10^7 cells/mL ([3]; 0.25 mM P-113, C. albicans below 10^7 cells/mL, data not shown): did not show any noticeable changes
Cellular localization of FITC peptide [4]: accumulated in the cytosol
Cell surface morphology (SEM), time course [5]: smooth
Effect on gingivitis and plaque [6]: reduced the development of gingivitis and plaque
